Values after ≈ are worked out from the molar mass of the structure shown.
What was measured:
Assay type in all cases: functional
Candida albicans = experiment: Antifungal activity against Candida albicans after 48 hrs by spectrophotometry
Candida parapsilosis = experiment: Antifungal activity against Candida parapsilosis after 48 hrs by spectrophotometry; settings: Lodderomyces parapsilosis
Cryptococcus neoformans = experiment: Antifungal activity against Cryptococcus neoformans after 48 hrs by spectrophotometry
Nakaseomyces glabratus = experiment: Antifungal activity against Candida glabrata after 48 hrs by spectrophotometry
Aspergillus fumigatus = experiment: Antifungal activity against Aspergillus fumigatus after 48 hrs by spectrophotometry
Trichophyton rubrum = experiment: Antifungal activity against Trichophyton rubrum after 48 hrs by spectrophotometry
Nannizzia gypsea = experiment: Antifungal activity against Microsporum gypseum after 48 hrs by spectrophotometry

MIC80 (Candida albicans) | MIC80 (Candida parapsilosis) | MIC80 (Cryptococcus neoformans) | MIC80 (Nakaseomyces glabratus) | MIC80 (Aspergillus fumigatus) | MIC80 (Trichophyton rubrum) | MIC80 (Nannizzia gypsea) | Structure (SMILES)
1 µg/mL (≈ 1.81 µM) | 2 µg/mL (≈ 3.62 µM) | 2 µg/mL (≈ 3.62 µM) | 4 µg/mL (≈ 7.24 µM) | 4 µg/mL (≈ 7.24 µM) | 1 µg/mL (≈ 1.81 µM) | 0.5 µg/mL (≈ 0.905 µM) | OC(CN1CCC(c2nc(-c3ccc(C(F)(F)F)cc3F)no2)CC1)(Cn1cncn1)c1ccc(F)cc1F (stereo unspecified)
1 µg/mL (≈ 1.94 µM) | 8 µg/mL (≈ 15.5 µM) | 4 µg/mL (≈ 7.74 µM) | 8 µg/mL (≈ 15.5 µM) | 8 µg/mL (≈ 15.5 µM) | 4 µg/mL (≈ 7.74 µM) | 8 µg/mL (≈ 15.5 µM) | OC(CN1CCC(c2nnc(-c3cccc4ccccc34)o2)CC1)(Cn1cncn1)c1ccc(F)cc1F (stereo unspecified)
1 µg/mL (≈ 2.01 µM) | 4 µg/mL (≈ 8.06 µM) | 2 µg/mL (≈ 4.03 µM) | 4 µg/mL (≈ 8.06 µM) | 4 µg/mL (≈ 8.06 µM) | 4 µg/mL (≈ 8.06 µM) | 4 µg/mL (≈ 8.06 µM) | COc1cccc(-c2noc(C3CCN(CC(O)(Cn4cncn4)c4ccc(F)cc4F)CC3)n2)c1 (stereo unspecified)
0.25 µg/mL (≈ 0.489 µM) | 2 µg/mL (≈ 3.91 µM) | 1 µg/mL (≈ 1.96 µM) | 4 µg/mL (≈ 7.82 µM) | 4 µg/mL (≈ 7.82 µM) | 2 µg/mL (≈ 3.91 µM) | 2 µg/mL (≈ 3.91 µM) | O=[N+]([O-])c1ccc(-c2nnc(C3CCN(CC(O)(Cn4cncn4)c4ccc(F)cc4F)CC3)o2)cc1 (stereo unspecified)
0.125 µg/mL (≈ 0.26 µM) | 4 µg/mL (≈ 8.32 µM) | 4 µg/mL (≈ 8.32 µM) | 8 µg/mL (≈ 16.6 µM) | 8 µg/mL (≈ 16.6 µM) | 16 µg/mL (≈ 33.3 µM) | 16 µg/mL (≈ 33.3 µM) | Cc1ccccc1-c1nnc(C2CCN(CC(O)(Cn3cncn3)c3ccc(F)cc3F)CC2)o1 (stereo unspecified)
0.25 µg/mL (≈ 0.52 µM) | 2 µg/mL (≈ 4.16 µM) | 1 µg/mL (≈ 2.08 µM) | 2 µg/mL (≈ 4.16 µM) | 2 µg/mL (≈ 4.16 µM) | 2 µg/mL (≈ 4.16 µM) | 0.5 µg/mL (≈ 1.04 µM) | Cc1cccc(-c2nnc(C3CCN(CC(O)(Cn4cncn4)c4ccc(F)cc4F)CC3)o2)c1 (stereo unspecified)
0.125 µg/mL (≈ 0.268 µM) | 0.5 µg/mL (≈ 1.07 µM) | 0.25 µg/mL (≈ 0.536 µM) | 2 µg/mL (≈ 4.29 µM) | 2 µg/mL (≈ 4.29 µM) | 1 µg/mL (≈ 2.14 µM) | 1 µg/mL (≈ 2.14 µM) | OC(CN1CCC(c2nnc(-c3ccccc3)o2)CC1)(Cn1cncn1)c1ccc(F)cc1F (stereo unspecified)
0.125 µg/mL (≈ 0.267 µM) | 1 µg/mL (≈ 2.14 µM) | 0.5 µg/mL (≈ 1.07 µM) | 4 µg/mL (≈ 8.56 µM) | 4 µg/mL (≈ 8.56 µM) | 4 µg/mL (≈ 8.56 µM) | 4 µg/mL (≈ 8.56 µM) | OC(CN1CCC(c2nnc(-c3cccnc3)o2)CC1)(Cn1cncn1)c1ccc(F)cc1F (stereo unspecified)
0.063 µg/mL (≈ 0.133 µM) | 2 µg/mL (≈ 4.23 µM) | 1 µg/mL (≈ 2.12 µM) | 2 µg/mL (≈ 4.23 µM) | 2 µg/mL (≈ 4.23 µM) | 1 µg/mL (≈ 2.12 µM) | 2 µg/mL (≈ 4.23 µM) | OC(CN1CCC(c2nc(-c3cccs3)no2)CC1)(Cn1cncn1)c1ccc(F)cc1F (stereo unspecified)
0.5 µg/mL (≈ 0.935 µM) | 4 µg/mL (≈ 7.48 µM) | 2 µg/mL (≈ 3.74 µM) | 2 µg/mL (≈ 3.74 µM) | 2 µg/mL (≈ 3.74 µM) | 4 µg/mL (≈ 7.48 µM) | 2 µg/mL (≈ 3.74 µM) | OC(CN1CCC(c2nc(-c3ccc(C(F)(F)F)cc3)no2)CC1)(Cn1cncn1)c1ccc(F)cc1F (stereo unspecified)
0.125 µg/mL (≈ 0.258 µM) | 0.5 µg/mL (≈ 1.03 µM) | ≤ 0.125 µg/mL | 1 µg/mL (≈ 2.06 µM) | 1 µg/mL (≈ 2.06 µM) | 2 µg/mL (≈ 4.13 µM) | 2 µg/mL (≈ 4.13 µM) | OC(CN1CCC(c2nnc(-c3ccccc3F)o2)CC1)(Cn1cncn1)c1ccc(F)cc1F (stereo unspecified)
0.125 µg/mL (≈ 0.274 µM) | 0.5 µg/mL (≈ 1.1 µM) | ≤ 0.125 µg/mL | 0.5 µg/mL (≈ 1.1 µM) | 0.5 µg/mL (≈ 1.1 µM) | 2 µg/mL (≈ 4.38 µM) | 4 µg/mL (≈ 8.76 µM) | OC(CN1CCC(c2nnc(-c3ccco3)o2)CC1)(Cn1cncn1)c1ccc(F)cc1F (stereo unspecified)
0.063 µg/mL (≈ 0.13 µM) | 0.5 µg/mL (≈ 1.03 µM) | ≤ 0.125 µg/mL | 1 µg/mL (≈ 2.06 µM) | 1 µg/mL (≈ 2.06 µM) | 2 µg/mL (≈ 4.13 µM) | 2 µg/mL (≈ 4.13 µM) | OC(CN1CCC(c2nnc(-c3ccc(F)cc3)o2)CC1)(Cn1cncn1)c1ccc(F)cc1F (stereo unspecified)

Reference: ChEMBL document CHEMBL3734719, “Discovery of highly potent triazoleantifungal agents with piperidine-oxadiazole side chains” (2015)
